Test results as given in ChEMBL document CHEMBL1201862, “PubChem BioAssay data set” (2004).
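How tested: cells in 96-well plates exposed to compound for 48 hours at five concentrations. GI50 is the concentration that inhibits growth by half.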 The source made the active and inactive calls. Cut-off read from the data, not from the text of the source: active = GI50 up to about 1.1 µM and inactive = higher.

Columns and labels:
Test in all cases: NCI anticancer screen, dose series, 48 h
KM12 = tested on: KM12
HCT-116 = tested on: HCT-116
NCI-H460 = tested on: NCI-H460
DU-145 = tested on: DU-145
MDA-MB-435 = tested on: MDA-MB-435
UO-31 = tested on: UO-31
T47D = tested on: T47D
SN12C = tested on: SN12C
HCT-15 = tested on: HCT-15
SF-295 = tested on: SF-295
Malme-3M = tested on: Malme-3M
Hs-578T = tested on: Hs-578T
CAKI-1 = tested on: CAKI-1
OVCAR-4 = tested on: OVCAR-4
CCRF-CEM = tested on: CCRF-CEM
EKVX = tested on: EKVX
MOLT-4 = tested on: MOLT-4
A498 = tested on: A498
NCI-H522 = tested on: NCI-H522

| SMILES | GI50 (KM12) | GI50 (HCT-116) | GI50 (NCI-H460) | GI50 (DU-145) | GI50 (MDA-MB-435) | GI50 (UO-31) | GI50 (T47D) | GI50 (SN12C) | GI50 (HCT-15) [µM] | GI50 (SF-295) | GI50 (Malme-3M) | GI50 (Hs-578T) | GI50 (CAKI-1) | GI50 (OVCAR-4) | GI50 (CCRF-CEM) | GI50 (EKVX) | GI50 (MOLT-4) | GI50 (A498) | GI50 (NCI-H522) |
| --- | --- | --- | --- | --- | --- | --- | --- | --- | --- | --- | --- | --- | --- | --- | --- | --- | --- | --- | --- |
| COC(=O)C1(Cc2ccccc2)Cc2ccccc2C1=O (stereo not drawn) | 27.7 µM (inactive) | 36.1 µM (inactive) | 46 µM (inactive) | 83.4 µM (inactive) | 22.6 µM (inactive) | 23.3 µM (inactive) | 43.1 µM (inactive) | 35.2 µM (inactive) | 37.2 | 66.8 µM (inactive) | 16.3 µM (inactive) | 61.1 µM (inactive) | 83 µM (inactive) | 25.4 µM (inactive) | 35.8 µM (inactive) | 30.3 µM (inactive) | 25.6 µM (inactive) | – | – |
| CC1CCCCN1CC(=O)c1ccc2c(c1)Sc1ccccc1O2 (stereo not drawn) | 16.5 µM (inactive) | 14.2 µM (inactive) | 14.2 µM (inactive) | 26.7 µM (inactive) | 13.8 µM (inactive) | 12.3 µM (inactive) | 20.7 µM (inactive) | 18.7 µM (inactive) | 19.7 | 16.5 µM (inactive) | 13.5 µM (inactive) | 10.8 µM (inactive) | 17.9 µM (inactive) | 13.2 µM (inactive) | 16.5 µM (inactive) | 13.3 µM (inactive) | 19.3 µM (inactive) | 18.8 µM (inactive) | – |
| Cc1c(O)c(C)c2c(C)cn(C(=O)C(C)(C)C)c2c1C | 14 µM (inactive) | 21 µM (inactive) | 29.5 µM (inactive) | 20.8 µM (inactive) | 16.5 µM (inactive) | 27.9 µM (inactive) | 23.5 µM (inactive) | 17.9 µM (inactive) | 21.8 | 17.8 µM (inactive) | – | 28.4 µM (inactive) | – | 12.6 µM (inactive) | 19.8 µM (inactive) | 20 µM (inactive) | 23 µM (inactive) | 16.5 µM (inactive) | 23.7 µM (inactive) |
| B.CC(=O)OC1CN2CCC1CC2 (stereo not drawn) | > 100 µM (inactive) | > 100 µM (inactive) | > 100 µM (inactive) | > 100 µM (inactive) | > 100 µM (inactive) | – | > 100 µM (inactive) | > 100 µM (inactive) | > 100 | > 100 µM (inactive) | > 100 µM (inactive) | > 100 µM (inactive) | – | – | > 100 µM (inactive) | > 100 µM (inactive) | > 100 µM (inactive) | > 100 µM (inactive) | – |
| CC(C)(C)OC(=O)N1NC(c2ccccc2)CC1c1ccccc1 (stereo not drawn) | 20.7 µM (inactive) | 29.7 µM (inactive) | 30.4 µM (inactive) | 27.2 µM (inactive) | 24.3 µM (inactive) | 15.7 µM (inactive) | 13.5 µM (inactive) | 45.1 µM (inactive) | 22.1 | 33.6 µM (inactive) | – | 36.6 µM (inactive) | 35 µM (inactive) | – | 19 µM (inactive) | 33.7 µM (inactive) | 24.8 µM (inactive) | 27.8 µM (inactive) | 31.6 µM (inactive) |
| CC(=O)[C@H]1[C@@H](OCc2ccccc2)O[N+]([O-])=C(C)[C@@H]1c1ccccc1 | 37.4 µM (inactive) | – | 53.8 µM (inactive) | 43.8 µM (inactive) | 45 µM (inactive) | 20.8 µM (inactive) | 21.3 µM (inactive) | – | 27.7 | 75.2 µM (inactive) | 26.4 µM (inactive) | 19.9 µM (inactive) | 23.6 µM (inactive) | 47.1 µM (inactive) | 14.9 µM (inactive) | 53.3 µM (inactive) | 17.2 µM (inactive) | > 100 µM (inactive) | 13.1 µM (inactive) |
| O=C1[C@H](O)[C@@H]2CCC[C@@]23CCCN13 | > 100 µM (inactive) | > 100 µM (inactive) | > 100 µM (inactive) | > 100 µM (inactive) | > 100 µM (inactive) | > 100 µM (inactive) | > 100 µM (inactive) | > 100 µM (inactive) | > 100 | > 100 µM (inactive) | – | > 100 µM (inactive) | > 100 µM (inactive) | – | 94.4 µM (inactive) | > 100 µM (inactive) | > 100 µM (inactive) | > 100 µM (inactive) | > 100 µM (inactive) |
